# From US20090209538A1, “THERAPEUTIC SUBSTITUTED LACTAMS” (ALLERGAN, INC., priority 2008, published 2009)
# Entries after “also recorded” stand apart in the source; their conditions may differ.
# Tested on: patients having glaucoma (lashes and adjacent hairs)
# Test: Clinical observation of lash and hair growth in glaucoma patients treated in one eye
# Type: in vivo, humans
# Settings: glaucoma patients treated unilaterally; treated versus control areas
# From the text: In the course of treating patients having glaucoma, treatment may only be appropriate in one eye. […] The lash appearance on the lids of the treated eyes would have appeared quite attractive if it represented a bilateral phenomenon. As a result of its asymmetric nature, the long lashes on one side could be construed as disturbing from a cosmetic standpoint. A systemic examination was preformed as a result of the asymmetric phenomenon. It soon became apparent that this altered appearance was not an isolated finding. […] Definite differences could be identified to varying degrees in the lashes and adjacent hairs of all patients who were taking the drug on a unilateral basis for longer than 6 months.
# The changes in the lashes were apparent on gross inspection in several patients once attention was focused on the issue. In those with light colored hair and lashes, the differences were only seen easily with the aid of the high magnification and lighting capabilities of the slit lamp biomicroscope. In the course of glaucoma follow-up examination, attention is generally immediately focused on the eye itself. As a result of the high power magnification needed only one eye is seen at a time and the eye is seen at a high enough power that the lashes are not in focus. […]
smiles,measurement,value
CCNC(=O)CCC/C=C\C[C@@H]1[C@@H](/C=C/[C@@H](O)CCc2ccccc2)[C@H](O)C[C@@H]1O [bimatoprost],lash / hair growth in treated eye versus non-treated eye,"longer, thicker, and fuller in the treated eye than in the non-treated eye; also recorded: hair growth is stimulated"
